Test results reported in paper PMC9388906, “Dual inhibition of the Echinococcus multilocularis energy metabolism” (Frontiers in Veterinary Science, 2022).
pIC50: −log10 of the molar value. Read-outs that look alike come from different tables or passages of the source.

Tests used:
[1] = tested on: E. multilocularis metacestodes; assay: Succinate concentrations in culture supernatants (malate dismutation activity); format: cell-based, Echinococcus multilocularis; conditions: 10 μM, 5 days
Method: Both compounds were tested either alone or in combination at 10 μM with the above-described PGI assay for 5 days for their activity against E. multilocularis metacestodes. PGI assays were done in triplicates and two times independently. […] To assess direct effects on the MD, succinate levels were measured in the supernatants of the PGI assay, as described below. To determine whether differences between groups were significant, data was subjected to student's t-test analysis and P-values below 0.05 are given.
Succinate measurements in supernatants of drug-treated E. multilocularis metacestodes was performed with the “Succinic Acid Assay Kit” (Megazyme, Bray, Ireland). […] 20 μL of each diluted (1:20) sample or standard was used in triplicate for succinate measurements in 96-well plates (flat bottom, Greiner Bio-One GmbH, Frickenhausen, Germany). The reaction mix buffer was prepared as described in the supplier manual: per well 180 μL H2O, 20 μL solvent 1 (buffer, pH 8.4, sodium azide 0.02% w/v), 20 μL solvent 2 (NADH plus stabilizer), 20 μL solvent 3 (ATP, PEP, and CoA) and 2 μL solvent 4 (pyruvate kinase plus L-lactate dehydrogenase suspension) were added. After a 180 s pre-incubation time, a first measurement at 340 nm was done on an EnSpire multilabel plate reader (PerkinElmer Life Sciences, Schwerzenbach, Switzerland). 10 μL solvent 5 (succinyl-CoA synthetase suspension; 1:10 diluted) were then added to each well and the plate was read at 340 nm for 1 h every minute. […] Succinate levels are shown as mean values with standard deviations of biological triplicates. To determine whether differences between groups were significant, data was subjected to student's t-test analysis and P-values below 0.05 are given.

[2] = tested on: E. multilocularis GL cells (isolate Sval); assay: GL cell viability assay (CellTiter-Glo), isolate Sval; format: cell-based, Echinococcus multilocularis; conditions: isolate Sval; 0.1 μM; 5 days; nitrogen atmosphere; mean (SD); active if <30%
Method: (§1) To assess the in vitro efficacy of ELQs against E. multilocularis, (a) the damage-marker phosphoglucose isomerase (PGI) assay was applied against metacestodes, and (b) the germinal layer (GL) cell viability assay was applied to measure effects on isolated GL cells. Both assays are described in more detail below. The drug testing strategy was as follows: PGI assay was first conducted for overview screening at 10 μM with the parasite isolates H95 and Sval. The GL cell viability assay was performed at 0.1 μM with both isolates H95 and Sval.
(§2) The isolation of E. multilocularis GL cells was done as described previously ([17]) with minor modifications. Fifteen units of GL cells were distributed to each well of a 384 well plate in a total volume of 12.5 μL conditioned medium. The different ELQs were added to the wells to 0.1 μM, in quadruplicates. As a negative control 0.1% DMSO was used. The 384-well plate was incubated for 5 days at 37°C under humid nitrogen atmosphere. Thereafter, viability of the GL cells under different drug treatments was assessed by CellTiter-Glo® (Promega AG, Dübendorf, Switzerland). The CellTiter-Glo reagent was complemented with 1% Tx-100. The luciferase bioluminescence was measured at 530 nm by using the Enspire multilabel reader (PerkinElmer Life Sciences, Schwerzenbach, Switzerland). Using Microsoft Excel, the blank values were subtracted from the experimental values and the relative viability compared to DMSO was calculated. Viabilities were calculated as mean values and standard deviations for each quadruplicate.

[3] = tested on: Reuber rat hepatoma (Rh) cells; assay: Mammalian cell toxicity, Alamar Blue assay; format: cell-based; conditions: Alamar blue, 5 days, range tested 30–0.23 μM, mean (SD) of two tests
Method: Compounds were added in a serial dilution (30–0.23 μM, 1:2 dilution steps) and in triplicates. Plates were incubated at 37°C, 5% CO2 and humid atmosphere for 5 days. Resazurin was added to a final concentration of 10 mg/L to each well, and fluorescence measured at 530 nm on an Enspire multilabel plate reader over 3 h. By using Microsoft Office Excel 2010 and a logit-log transformation of the relative growth, IC50 values were calculated. The test was performed twice for each compound, and respective averages and standard deviations are given.

[4] = tested on: E. multilocularis GL cells (isolate H95); assay: GL cell viability assay (CellTiter-Glo), isolate H95; format: cell-based, Echinococcus multilocularis; conditions: isolate H95; 0.1 μM; 5 days; nitrogen atmosphere; mean (SD); active if <30%
Method: as §1, §2

[5] = tested on: E. multilocularis metacestodes; assay: PGI assay, single and combination treatment under normoxic and anaerobic conditions; format: cell-based, Echinococcus multilocularis; conditions: 5 days
Method: The PGI assay measures the amount of PGI that metacestodes release into the medium when damaged ([17], [32]). The purification and in vitro drug incubation of E. multilocularis metacestodes was conducted according to Stadelmann et al. ([32]). In short, cultures were applied for in vitro drug testing at the age of 6-8 weeks. E. multilocularis metacestodes were therefore purified by the addition of 2% saccharose and washed extensively with PBS. Purified metacestodes were suspended 1:3 with DMEM (without phenol red, supplemented with 100 U/mL penicillin, 100 μg/mL streptomycin) and distributed in 48-well plates (1 mL/well, thus 300 μL pure metacestode vesicles per well). […] The corresponding DMSO concentration was used as negative control and Tx-100 (0.1% final concentration) was used for total damage (positive control). […] After 5 days, relative PGI activities were measured and calculated as percentage of the Tx-100 control as described previously in Rufener et al. ([17]). They were calculated as mean values and standard deviations for each triplicate. EC50 calculations were calculated based on logit-log transformed values in Microsoft Office Excel 2010. EC50 measurements were performed twice, and averages and standard deviations of these repeated tests are given.
For double inhibition of the mitochondrial energy pathways of E. multilocularis, quinazoline as an inhibitor of the anaerobic MD ([29]) was applied in combination with ELQ-400 as an inhibitor of the ETC. Both compounds were tested either alone or in combination at 10 μM with the above-described PGI assay for 5 days for their activity against E. multilocularis metacestodes. PGI assays were done in triplicates and two times independently. […] Results of the assays were calculated as mean values and standard deviations for each biological triplicate were calculated as relative percentage to the Tx-100 control. To assess direct effects on the MD, succinate levels were measured in the supernatants of the PGI assay, as described below. […]

[6] = tested on: mitochondrial bc1 complex of E. multilocularis GL cells; assay: Seahorse oxygen consumption rate assay; format: cell-based, Echinococcus multilocularis; conditions: 1 μM; succinate as initial electron donor; restored by ascorbate/TMPD, not by succinate or glycerol 3-phosphate
Method: To measure effects of ELQ-400 on the oxygen consumption rate (OCR), Seahorse assay was conducted according to the method established by Rufener et al. ([17]) and according to the manual for Seahorse XFp Extracellular Flux Analyzer (Agilent Technologies, Bucher Biotec, Basel, Switzerland). E. multilocularis GL cells were isolated and prepared the day before. Cells were centrifuged and resuspended in Mitochondrial Assay Solution (MAS) solution (220 mM mannitol, 70 mM sucrose, 10 mM KH2PO4, 5 mM MgCl2, 2 mM HEPES, and 1 mM EGTA pH 7.2). This cell suspension was centrifuged again and the pellet was resuspended in assay-buffer (MAS, 10 mM succinate, 2 μM rotenone, 4 mM ADP, and 3.6 nM PMP). 100 units of GL cells were distributed to each well of a Seahorse XFp miniplate (Agilent Technologies) pre-coated with CellTak according to the instruction manual (Fisher Scientific, Schwerte, Germany). Two wells were used as blanks with assay buffer without cells. ELQ-400 (1 μM) was diluted in MAS solution and loaded to the delivery ports of the sensor cartridge of the first injection (or DMSO as a control). In the second injection, succinate (10 mM), glycerol 3-phosphate (10 mM), or ascorbate (20 mM) with TMPD (0.6 mM) was added. […] Each drug setup was tested in triplicates and the read-out and analysis was done using the software Wave (Agilent Technologies, Bucher Biotec, Basel, Switzerland). […]

## Cc1[nH]c2cc(F)cc(F)c2c(=O)c1-c1ccc(Oc2ccc(OC(F)(F)F)cc2)cc1 [ELQ-400]
[1]; anaerobic
  Release of succinate by metacestodes compared to DMSO control: significantly enhanced
[1]; normoxic
  Release of succinate by metacestodes compared to DMSO control: significantly enhanced
[2]
  GL cells, viability via ATP measurements, relative to DMSO control: 14.6 (8.6) %
[3]; confluent Rh cells, read-out: IC50 Rh confluent
  pIC50: < 4.52
[3]; preconfluent Rh cells, read-out: IC50 Rh preconfluent
  pIC50: 5.84
[4]
  GL cells, viability via ATP measurements, relative to DMSO control: 8.4 (4.8) %
[5]; 10 μM each, anaerobic (0% O2)
  PGI release of metacestodes relative to Tx-100: significantly reduced
[5]; 10 μM, normoxic (21% O2)
  PGI release of metacestodes relative to Tx-100: active
[6]
  Oxygen consumption rate (OCR) of GL cells: immediate reduction of the OCR
